Measurements from PMC9000801, “Bioactivities and Mode of Actions of Dibutyl Phthalates and Nocardamine from Streptomyces sp. H11809” (Molecules, 2022).
pIC50: −log10 of the molar value.

Target: T1, human GSK-3β (Hs GSK-3β) (Homo sapiens, UniProt P49841)
T1 construct: gene GSK3B
Assay: Kinase-Glo Plus luminescent kinase assay with recombinant enzyme; Michaelis-Menten and Lineweaver-Burk kinetics
Type: biochemical

T1 sequence (P49841 whole entry): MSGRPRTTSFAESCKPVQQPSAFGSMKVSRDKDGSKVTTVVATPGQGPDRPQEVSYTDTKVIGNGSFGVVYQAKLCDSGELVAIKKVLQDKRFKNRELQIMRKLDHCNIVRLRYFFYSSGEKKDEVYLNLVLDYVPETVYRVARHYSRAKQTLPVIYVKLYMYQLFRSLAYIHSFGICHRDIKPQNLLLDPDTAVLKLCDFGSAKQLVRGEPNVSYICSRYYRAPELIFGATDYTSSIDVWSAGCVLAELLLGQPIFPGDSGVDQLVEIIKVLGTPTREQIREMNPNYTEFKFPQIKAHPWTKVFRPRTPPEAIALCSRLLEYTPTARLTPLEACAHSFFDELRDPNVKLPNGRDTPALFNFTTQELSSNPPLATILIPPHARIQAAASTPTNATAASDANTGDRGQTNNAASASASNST

With `CCCCOC(=O)c1ccccc1C(=O)OCCCC` [DBP, dibutyl phthalate] the pIC50 was 5.70.
